Data taken from patent US20040132619A1, “Selective substituted aryl ketone and safener based herbicides” (priority 2001, published 2004).

Columns and labels:
[1] = test system: maize cv. “Pioneer”; test: Post-emergence test/greenhouse, damage to maize; type: in vivo; settings: Table A3
Protocol: (§1) The active compound or safener components are in each case dissolved in a little solvent and then—if appropriate after addition of an emulsifier—diluted with water to the desired concentration. Preferably, an aqueous spray liquor is prepared using 0.1% of the additive Renex-36. Acetone and N,N-dimethylformamide are used as preferred solvents.
(§2) The test plants are grown under controlled conditions (temperature, light, atmospheric humidity) in a greenhouse. The test plants are sprayed when they have reached a height of 5-15 cm. The concentration of the spray liquor is chosen such that the particular amounts of active compound desired are applied in 500 l of water/ha.
(§3) After spraying, the pots with the test plants are kept in a greenhouse chamber under controlled conditions (temperature, light, atmospheric humidity) until the test has ended. About three weeks after the application, the degree of damage to the crop plants is rated in % damage in comparison to the development of the untreated control.
(§4) 0% =no damage (like untreated control)
(§5) 100% =total destruction/damage
(§6) Active compounds, application rates, test plants and results are shown in the tables below, the terms being used in the tables being as defined below:
maize=maize cv. “Pioneer”
(§7) a.i.=active ingredient=active compound/safener

[2] = test system: Chenopodium; test: Post-emergence test/greenhouse, damage to Chenopodium; type: in vivo; settings: Table A3
Protocol: as §1, §2, §3, §4, §5, §6, §7

[3] = test system: Amaranthus; test: Post-emergence test/greenhouse, damage to Amaranthus; type: in vivo; settings: Table A3
Protocol: as §1, §2, §3, §4, §5, §6, §7

[4] = logP (physical data, Table 1); type: physicochemical; settings: footnote a) not given
[5] = test system: wheat cv. “Orestis”; test: Post-emergence test/greenhouse, damage to wheat; type: in vivo
Protocol: (§8) The active compound or safener components are in each case dissolved in a little solvent and then—if appropriate after addition of an emulsifier—diluted with water to the desired concentration. […] Acetone and N,N-dimethylformamide are used as preferred solvents. The test plants are grown under controlled conditions (temperature, light, atmospheric humidity) in a greenhouse. […] After spraying, the pots with the test plants are kept in a greenhouse chamber under controlled conditions (temperature, light, atmospheric humidity) until the test has ended. […] The figures denote: 0% =no damage (like untreated control) […] Active compounds, application rates, test plants and results are shown in the tables below, the terms being used in the tables being as defined below: wheat=wheat cv. “Orestis”, barley=barley cv. “Coronar” a.i.=active ingredient=active compound/safener

[6] = test system: barley cv. “Coronar”; test: Post-emergence test/greenhouse, damage to barley; type: in vivo
Protocol: as §8

[7] = Table A1: sown 31 March, application 19 April (20 days), 125 g of a.i./ha
[8] = Table A1: sown 31 March, application 19 April (20 days), 250 g of a.i./ha
[9] = Table A1: sown 31 March, application 19 April (20 days), 500 g of a.i./ha
[10] = Table A2: sown 12 April, application 10 May (4 weeks), 125 g of a.i./ha
[11] = Table A2: sown 12 April, application 10 May (4 weeks), 250 g of a.i./ha
[12] = Table A2: sown 12 April, application 10 May (4 weeks), 500 g of a.i./ha

In the case of `COc1nn(Cc2cc(C(F)(F)F)ccc2C(=O)C2C(=O)CCCC2=O)c(=O)n1C` [Example I-5], the “Damage Maize (in %)” value ([1]; 30 g of a.i./ha) is reported as 30%, the “Damage Maize (in %)” value ([1]; 60 g of a.i./ha) is reported as 60% and the “Damage Maize (in %)” value ([1]; 125 g of a.i./ha) is reported as 70%. For the same compound, the “Damage Chenopodium (in %)” value ([2]; 30 g of a.i./ha) was 100%, the “Damage Chenopodium (in %)” value ([2]; 60 g of a.i./ha) was 100% and the “Damage Chenopodium (in %)” value ([2]; 125 g of a.i./ha) was 100%. For the same compound, the “Damage Amaranthus (in %)” value ([3]; 30 g of a.i./ha) was 100%, the “Damage Amaranthus (in %)” value ([3]; 60 g of a.i./ha) was 100% and the “Damage Amaranthus (in %)” value ([3]; 125 g of a.i./ha) was 100%. For the same compound, the logP [4] was “logP = 2.35^a)”.

For `CN1CCCN(Cc2c(S(C)(=O)=O)ccc(C(=O)C3C(=O)CCCC3=O)c2Cl)C1=O` [Example I-11], the logP [4] was “logP = 1.73^a)”.

With `CCN1CCCN(Cc2c(S(C)(=O)=O)ccc(C(=O)C3C(=O)CCCC3=O)c2Cl)C1=O` [Example I-12] the logP [4] was “logP = 1.96^a)”.

With `COc1c(C(=O)c2cnoc2C2CC2)ccc(Cl)c1CN1CCN(C)C1=O` [Example I-14] the logP [4] was “logP = 2.46^a)”.

With `CSc1nn(Cc2cc(C(F)(F)F)ccc2C(=O)C2C(=O)CCCC2=O)c(=O)n1C` [Example I-15] the “Damage Wheat (in %) (5 days)” value [5, 7] was 30%, the “Damage Wheat (in %) (20 days)” value [5, 7] was 20% and the “Damage Wheat (in %) (5 days)” value [5, 8] was 40%. For the same compound, the “Damage Wheat (in %) (20 days)” value [5, 8] was 20%, the “Damage Wheat (in %) (5 days)” value [5, 9] was 40% and the “Damage Wheat (in %) (20 days)” value [5, 9] was 30%. The “Damage Wheat (in %) (5 days)” value [5, 10] was 20%, the “Damage Wheat (in %) (20 days)” value [5, 10] was 30% and the “Damage Wheat (in %) (5 days)” value [5, 11] was 35%. The “Damage Wheat (in %) (20 days)” value [5, 11] was 40%, the “Damage Wheat (in %) (5 days)” value [5, 12] was 35% and the “Damage Wheat (in %) (20 days)” value [5, 12] was 50%. For the same compound, the “Damage Barley (in %) (5 days)” value [6, 7] was 40%, the “Damage Barley (in %) (20 days)” value [6, 7] was 10% and the “Damage Barley (in %) (5 days)” value [6, 8] was 50%. The “Damage Barley (in %) (20 days)” value [6, 8] was 15%, the “Damage Barley (in %) (5 days)” value [6, 9] was 50% and the “Damage Barley (in %) (20 days)” value [6, 9] was 20%. The “Damage Barley (in %) (5 days)” value [6, 10] was 35%, the “Damage Barley (in %) (20 days)” value [6, 10] was 25% and the “Damage Barley (in %) (5 days)” value [6, 11] was 35%. For the same compound, the “Damage Barley (in %) (20 days)” value [6, 11] was 30%, the “Damage Barley (in %) (5 days)” value [6, 12] was 35% and the “Damage Barley (in %) (20 days)” value [6, 12] was 50%. For the same compound, the logP [4] was “logP = 2.59^a)”.
